{"source": "patent US8093025B2", "about": "“Bacterial vector” (Helmholtz-Zentrum fuer Infektionsforschung GmbH, priority 2004, dated 2012)", "key": {"PBAD [1]": {"test_system": "PBAD", "test": "Induction of plasmid replication in bacterial vector within infected J774A1 cells (GFP read-out)", "type": "cell-based, murine", "conditions": "SL7207[pAEN17] in J774A1 cells, L-arabinose 4 mM, 40 mM, 400 mM, 3 hours", "method": "J774A1 cells, a murine macrophage cell line, were infected with strain SL7207[pAEN17], as described in Example 2. 4 hours after infection, different amounts of L-arabinose were added into individual wells of infected J774A1 cells up to a concentration in the medium of 4 mM, 40 mM and 400 mM, respectively. 3 hours after addition of L-arabinose cells were treated with 0.25% Triton X-100. Bacteria in the lysates were monitored for GFP expression by flow cytometry as described in Example 2. The analytical results are depicted in FIG. 7, with unspecific background fluorescence substracted."}, "PBAD [2]": {"test_system": "PBAD", "test": "In vivo GFP expression from bacterial vector re-isolated from spleen of infected mice", "parameters": "species or system Balb/c mice", "conditions": "SL7207[pHL238] i.v., L-arabinose i.v. after 2 days, spleen 4 hours later", "method": "Balb/c mice were infected intravenously with a dose of ca. 5×10^6 bacteria in PBS of bacterial vector SL7207[pHL238]. After 2 days, different amounts of L-arabinose dissolved in PBS were administered intravenously into mice. 4 hours after L-arabinose administration mice were sacrificed, spleens were removed, homogenized in PBS containing 0.1% Triton X-100 and lysates were analyzed by two colour flow cytometry."}, "PBAD [3]": {"test_system": "PBAD", "test": "GFP expression from plasmid pHL238 in bacterial culture after induction, flow cytometry", "type": "cell-based, Salmonella enterica serovar Typhimurium", "conditions": "induction by L-arabinose, vector SL7207[pHL238]", "excerpt": "As an example for a structural gene, plasmid pHL238 (schematically depicted in FIG. 1) comprising the structural gene for green fluorescent protein (GFP) under the control of PBAD was cloned, further comprising the structural gene for the regulator of PBAD, araC under the control of its own promoter Pc, along with the Ampicillin resistance gene as a selection marker, and a high copy number origin of replication from pUC. Regulatory elements originate from plasmid pBAD18 (Guzman et al., J. Bacteriol. 1995 July; 177(14):4121-30)\nThis bacterial vector is based on Salmonella enterica serovar Typhimurium, strain SL7207, which is a known attenuated invasive salmonella strain in use for experimental vaccination. The salmonella strain was transformed with plasmid pHL238 by electroporation, transformed colonies were selected on LB-medium agar plates containing streptomycin at 30 μg/mL and ampicillin at 100 μg/mL. The resultant transformed strain was bacterial vector SL7207[pHL238]. […] Results are shown in FIG. 2, the thick line for addition of L-arabinose, the thin line without L-arabinose."}, "PBAD [4]": {"test_system": "PBAD", "test": "GFP expression from bacterial vector within infected J774A1 cells, two colour flow cytometry", "type": "cell-based, murine", "conditions": "SL7207[pHL238] in J774A1 cells, L-arabinose 4 mM, 40 mM, 400 mM in medium, 3 hours", "method": "The murine macrophage cell line J774A1 was infected with bacterial vector SL7207[pHL238] of Example 1. Before infection, cells were seeded to 2×10^6 cells per well in a 6-well plate in antibiotic-free medium (IMDM with 10% inactivated fetal calf serum, 2 mM glutamine) and grown for one day in a 5% CO2 atmosphere at 37° C. For infection, SL7207[pHL238] were grown from a glycerol stock overnight at 37° C. on a LB plate supplemented with antibiotics, followed by cultivation in liquid LB medium supplemented with antibiotics for approximately 2 hours at 37° C., shaking at 60 rpm. Bacteria were harvested by centrifugation, washed in PBS, resuspended in cell culture medium and added at a ˜MOI of 10. 30 min after start of infection cells were washed twice with PBS before medium containing gentamycin (50 μg/mL) was added to kill extracellular bacteria. […] GFP expressing bacteria in the lysates were monitored by flow cytometry. In order to differentiate fluorescence of GFP expressing bacteria from autofluorescent cell fragments the so-called two colour flow cytometry method was used (Bumann, Infect. Immun. (2001) 69, 4618-4626.). The analytical results are depicted in FIG. 3, with unspecific background fluorescence substracted. […]"}, "[5]": {"test_system": "SL7207 bearing the plasmid of FIG. 8", "test": "Induced lysis (gene E) of bacterial vector within infected J774A1 cells, CFU", "type": "cell-based, Salmonella enterica serovar Typhimurium", "conditions": "SL7207 with gene E plasmid pHL241, induction period 3 hours", "method": "The plasmid pHL241 shown in FIG. 8 was derived from plasmid pHL238 shown in FIG. 1 by exchanging gene gfp against gene E.\nFor infection, J774A1 cells were cultured and infected with SL7207 bearing the plasmid of FIG. 8 according to the procedure of Example 2. Induction was by addition of L-arabinose to the final concentrations in cell culture medium as given in FIG. 9, for an induction period of 3 hours. Following induction, cells were harvested and lysed by addition of Triton X-100 to a concentration of 1 g/L. For re-isolation, intracellular bacterial vectors were plated on LB-agar containing ampicillin for quantification of viable bacteria as colony forming units (CFU)."}, "CT26 tumor [6]": {"test_system": "CT26 tumor", "test": "In vivo colonization and luciferase transgene induction in CT26 tumor-bearing mice", "parameters": "species or system Balb/c mice", "excerpt": "As a representative for a transgene, the luciferase gene from the firefly Photinus pyralis was used as the reporter gene. As the saccharide inducible promoter element, PBAD from the L-arabinose operon of E. coli was functionally linked to the luciferase gene, the promoter element further being in conjunction with the structural gene for its regulator protein araC under the control of its natural own promoter (PC). The bacterial vector was generated by transforming Salmonella enterica serovar Typhimurium, vaccine strain SL7207, with the plasmid containing the transgene under the control of the saccharide inducible promoter by electroporation.\nAs an example for an animal having a tumor, Balb/c mice were subcutaneously inoculated abdominally with 10^6 cells of the colon adenocarcinoma cell line CT26. After this tumor generation treatment, mice bearing tumors of approximately 400-600 mm^3 were intravenously injected with 5×10^6 bacteria of the above bacterial vector (SL7207[pHL259]), representing the first component of the pharmaceutical combination, suspended in phosphate buffered saline (PBS). Three days post infection, L-arabinose as the appropriate inductor saccharide, representing the second component of the pharmaceutical combination, was administered intraperitoneally, dissolved in PBS. Subsequently, mice were sacrificed and the tumors, spleens and livers dissected, then transferred into 3 mL of sterile, ice-cold PBS containing 0.1% (vol/vol) Triton X-100.\nTissues were disrupted in a Polytron PG3000 homogenizer (Kinematica, Littau, Switzerland). Homogenates were diluted in PBS and streaked on medium plates with selective antibiotic (ampicillin). Colonies were counted after incubation of plates. As a result, the number of bacteria in respective tissues could be calculated by counting the resulting colony forming units (cfu) for each organ.\nThe induction of the transgene was determined by measurement of the reporter gene (luciferase) activity from tissue homogenates after dilution (1:1) in 2× luciferase assay lysis buffer (50 mM tris-HCl, 4 mM DTT, 20% (vol/vol) glycerol, 2% (vol/vol) Triton X-100, 2 mg/mL lysozyme, pH 8.3), incubation at 25° C. for 10 minutes, centrifugation at 3,000×g for 3 minutes, 10 μL supernatant were added to 100 mL LARII reagent of the luciferase assay system according to the manufacturer's instructions (Promega, Mannheim, Germany). Luminescence intensity was measured spectrometrically in a luminometer (Lumat LB9507, Berthold, Pforzheim, Germany). Dilution was taken into account when calculating RLU per organ."}, "CT26 tumor [7]": {"test_system": "CT26 tumor", "test": "Vector with gene E under Prha and lux under PBAD plus TNFalpha in CT26 tumor mice", "type": "in vivo, Balb/c mice", "excerpt": "As an example for multifunctional bacterial vectors for use in the pharmaceutical combination according to the invention, vaccine strain SL7207 was genetically manipulated by Tn7 mediated chromosomal integration of the mini-transposon of a plasmid pHL260b, modified from pHL260a by replacing the PBAD promoter by the L-rhamnose inducible promoter (Prha), derived from plasmid pJOE2702 (Stumpp et al., Biospektrum 6, 33-36(2000)). This strain chromosomally contains at least one copy of gene E of bacteriophage phiX174 under the control of the rhamnose inducible promoter (Prha). The resultant strain was then transformed with plasmid pTNFa-lux, containing the bioluminescence operon of Photorhabdus luminescence under control of the PBAD promoter in combination with the mouse TNFalpha gene under the control of the constitutive promoter from beta-lactamase (Pbla).\nAs described in Example 8, Balb/c mice bearing a CT26 tumor were administered 5×10^6 bacterial vector, suspended in PBS by intravenous administration. […] Upon administration of 120 mg L-arabinose dissolved in PBS intraperitoneally, to the same mice 1 day later, as well as on consecutive days, colonization of tumor tissue by bacterial vectors was monitored by spectrometry, more specifically luminometric analysis of anesthesized mice using a CCD camera."}, "PBAD [8]": {"test_system": "PBAD", "test": "In vitro regulation of copy number of plasmid pAEN17 (GFP read-out) in bacterial culture", "type": "cell-based, Salmonella enterica serovar Typhimurium", "conditions": "addition of L-arabinose, trfA under PBAD acting on oriV", "excerpt": "In the absence of L-arabinose, just one copy of this plasmid per bacterial cell is maintained, regulated by the origin of replication derived from the F plasmid of Escherichia coli. In addition, this plasmid contains the inducible origin of replication of plasmid RK2, namely oriV. The replicase gene trfA, acting on this origin, is placed under the control of PBAD, as an example for a saccharide inducible promoter.\nIn order to allow for a convenient analysis of plasmid replication, GFP was placed under control of the weak constitutive Pbla promoter derived from the bla gene, also contained on said vector. The recombinant strain SL7207[pAEN17] was grown into logarithmic phase and either no or 0.1% L-Arabinose was added into bacterial cultures."}}}
{"molecule": "O=C[C@H](O)[C@@H](O)[C@@H](O)CO", "note": "[L-arabinose]", "values": [{"measurement": "fluorescence intensity of GFP", "setting": "PBAD [1]", "value": "increases with increasing concentrations of L-arabinose"}, {"measurement": "expression of GFP by bacteria recovered from infected animals", "setting": "PBAD [2]", "value": "induced by L-Arabinose in a dose-dependent manner"}, {"measurement": "GFP fluorescence relative to background without induction", "setting": "PBAD [3]", "value": "more than two orders above the background fluorescence"}, {"measurement": "fluorescence intensity of GFP", "setting": "PBAD [4]", "value": "increases with increasing concentrations of L-arabinose"}, {"measurement": "number of viable bacterial vectors inside infected J774A1 cells (CFU)", "setting": "[5]", "value": "drastically decreases the number of viable bacterial vectors"}, {"measurement": "induction of transgene expression (luciferase, RLU)", "setting": "CT26 tumor [6]; L-arabinose i.p. three days post infection, tumor, spleen, liver", "value": "induces transgene expression for all tissues tested"}, {"measurement": "transgene activity in spleen and liver", "setting": "CT26 tumor [6]; spleen and liver", "value": "very low to about background levels"}, {"measurement": "time of main transgene activity past administration of the inductor saccharide", "setting": "CT26 tumor [6]; tumor tissue", "value": "about 6 hours"}, {"measurement": "absolute transgene activity, comparison of tissues", "setting": "CT26 tumor [6]; tumor, spleen, liver", "value": "greatest in tumor tissue"}, {"measurement": "bioluminescence from lux operon under PBAD", "setting": "CT26 tumor [7]; 120 mg L-arabinose i.p., repeated administration after L-rhamnose", "value": "bioluminescence"}, {"measurement": "copy number of the plasmid pAEN17", "setting": "PBAD [8]", "value": "increased copy number"}]}
{"molecule": "C[C@H](O)[C@H](O)[C@@H](O)[C@@H](O)C=O", "note": "[L-rhamnose]", "values": [{"measurement": "lysis of bacterial vector and release of TNFalpha", "setting": "CT26 tumor [7]; 120 mg L-rhamnose i.p. 3 days after vector i.v.", "value": "lysis of bacterial vector and release of TNFalpha was observed"}]}
